# Values of other authors in PubChem BioAssay AID1259409 (Chemical Carcinogenesis Research Information System (CCRIS), 2018).
# System: rodent chemically induced tumor inhibition, incidence and multiplicity
# Test: CCRIS tumor inhibitor studies
smiles,measurement,setting,value
C#C[C@]1(O)CC[C@H]2[C@@H]3CCc4cc(O)ccc4[C@H]3CC[C@@]21C,"tumour outcome (control, treated, inhibition, significance)","Carcinogen: N-METHYL-N-NITROSOUREA, 684-93-5, Dose [Inhibitor]: 0, 0.001% IN DIET BEGINNING POST CARCINOGEN TREATMENT AND CONTINUING FOR 23 WK (STUDY DURATION: 25 WK), Route [Inhibitor]: ORAL, Species: RAT, Strain/Sex: F344/MALE, Target Tissue: Type of Lesion: FORESTOMACH: PAPILLOMA, Dose [Carcinogen]: 50 MG/KG 4/2 WK, Promoter: NONE USED","8/17 (47%), 4/20 (20%), 57%, not calculated"
same,"tumour outcome (control, treated, inhibition, significance)","Carcinogen: N-METHYL-N-NITROSOUREA, 684-93-5, Dose [Inhibitor]: 0, 0.001% IN DIET BEGINNING POST CARCINOGEN TREATMENT AND CONTINUING FOR 23 WK (STUDY DURATION: 25 WK), Route [Inhibitor]: ORAL, Species: RAT, Strain/Sex: F344/MALE, Target Tissue: Type of Lesion: FORESTOMACH: SQUAMOUS CELL CARCINOMA, Dose [Carcinogen]: 50 MG/KG 4/2 WK, Promoter: NONE USED","2/17 (12%), 2/20 (10%), 17%, not calculated"
same,"tumour outcome (control, treated, inhibition, significance)","Carcinogen: N-METHYL-N-NITROSOUREA, 684-93-5, Dose [Inhibitor]: 0, 0.001% IN DIET BEGINNING POST CARCINOGEN TREATMENT AND CONTINUING FOR 23 WK (STUDY DURATION: 25 WK), Route [Inhibitor]: ORAL, Species: RAT, Strain/Sex: F344/MALE, Target Tissue: Type of Lesion: HEMATOPOIETIC SYSTEM: LYMPHOMA OR LEUKEMIA, Dose [Carcinogen]: 50 MG/KG 4/2 WK, Promoter: NONE USED","3/17 (18%), 0/20 (0%), 100%, not calculated"
same,"tumour outcome (control, treated, inhibition, significance)","Carcinogen: N-METHYL-N-NITROSOUREA, 684-93-5, Dose [Inhibitor]: 0, 0.001% IN DIET BEGINNING POST CARCINOGEN TREATMENT AND CONTINUING FOR 23 WK (STUDY DURATION: 25 WK), Route [Inhibitor]: ORAL, Species: RAT, Strain/Sex: F344/MALE, Target Tissue: Type of Lesion: SMALL INTESTINE: ADENOCARCINOMA, Dose [Carcinogen]: 50 MG/KG 4/2 WK, Promoter: NONE USED","9/17 (53%), 0/20 (0%), 100%, not calculated"
same,"tumour outcome (control, treated, inhibition, significance)","Carcinogen: N-METHYL-N-NITROSOUREA, 684-93-5, Dose [Inhibitor]: 0, 0.001% IN DIET BEGINNING POST CARCINOGEN TREATMENT AND CONTINUING FOR 23 WK (STUDY DURATION: 25 WK), Route [Inhibitor]: ORAL, Species: RAT, Strain/Sex: F344/MALE, Target Tissue: Type of Lesion: SMALL INTESTINE: ADENOMA, Dose [Carcinogen]: 50 MG/KG 4/2 WK, Promoter: NONE USED","10/17 (59%), 7/20 (35%), 41%, not calculated"
same,"tumour outcome (control, treated, inhibition, significance)","Carcinogen: N-METHYL-N-NITROSOUREA, 684-93-5, Dose [Inhibitor]: 0, 0.001% IN DIET BEGINNING POST CARCINOGEN TREATMENT AND CONTINUING FOR 23 WK (STUDY DURATION: 25 WK), Route [Inhibitor]: ORAL, Species: RAT, Strain/Sex: F344/MALE, Target Tissue: Type of Lesion: THYROID: ADENOCARCINOMA, Dose [Carcinogen]: 50 MG/KG 4/2 WK, Promoter: NONE USED","1/17 (6%), 0/20 (0%), 100%, not calculated"
same,"tumour outcome (control, treated, inhibition, significance)","Carcinogen: N-METHYL-N-NITROSOUREA, 684-93-5, Dose [Inhibitor]: 0, 0.001% IN DIET BEGINNING POST CARCINOGEN TREATMENT AND CONTINUING FOR 23 WK (STUDY DURATION: 25 WK), Route [Inhibitor]: ORAL, Species: RAT, Strain/Sex: F344/MALE, Target Tissue: Type of Lesion: THYROID: ADENOMA, Dose [Carcinogen]: 50 MG/KG 4/2 WK, Promoter: NONE USED","3/17 (18%), 0/20 (0%), 100%, not calculated"
same,"tumour outcome (control, treated, inhibition, significance)","Carcinogen: N-METHYL-N-NITROSOUREA, 684-93-5, Dose [Inhibitor]: 0, 0.001% IN DIET BEGINNING POST CARCINOGEN TREATMENT AND CONTINUING FOR 23 WK (STUDY DURATION: 25 WK), Route [Inhibitor]: ORAL, Species: RAT, Strain/Sex: F344/MALE, Target Tissue: Type of Lesion: TONGUE: PAPILLOMA, Dose [Carcinogen]: 50 MG/KG 4/2 WK, Promoter: NONE USED","2/17 (12%), 2/20 (10%), 16%, not calculated"
same,"tumour outcome (control, treated, inhibition, significance)","Carcinogen: N-METHYL-N-NITROSOUREA, 684-93-5, Dose [Inhibitor]: 0, 0.001% IN DIET BEGINNING POST CARCINOGEN TREATMENT AND CONTINUING FOR 23 WK (STUDY DURATION: 25 WK), Route [Inhibitor]: ORAL, Species: RAT, Strain/Sex: F344/MALE, Target Tissue: Type of Lesion: TONGUE: SQUAMOUS CELL CARCINOMA, Dose [Carcinogen]: 50 MG/KG 4/2 WK, Promoter: NONE USED","2/17 (12%), 0/20 (0%), 100%, not calculated"
same,"tumour outcome (control, treated, inhibition, significance)","Carcinogen: N-METHYL-N-NITROSOUREA, 684-93-5, Dose [Inhibitor]: 0, 0.001% IN DIET BEGINNING POST CARCINOGEN TREATMENT AND CONTINUING FOR 23 WK (STUDY DURATION: 25 WK), Route [Inhibitor]: ORAL, Species: RAT, Strain/Sex: F344/MALE, Target Tissue: Type of Lesion: URINARY BLADDER: PAPILLOMA, Dose [Carcinogen]: 50 MG/KG 4/2 WK, Promoter: NONE USED","2/17 (18%), 0/20 (0%), 100%, not calculated"
CC(C)=CCC/C(C)=C/CC/C(C)=C/C=C/C(C)=C/C(=O)O,outcome,"Carcinogen: 3-METHYL-4-DIMETHYLAMINOAZOBENZENE [3732-90-9], Dose [Inhibitor]: 0, 10, 40, 80 MG/KG BW DAILY FOR 16 WK, Dose [Inhibitor]: 0, 10, 40, 80 MG/KG BW DAILY FOR 16 WK, Route [Inhibitor]: ORAL (GAVAGE), Species: RAT, Strain/Sex: F344/MALE (40,29)/(40,30)/(40,30)/(40,29), Target Tissue: Type of Lesion: LIVER: HEPATOCELLULAR CARCINOMA, Dose [Carcinogen]: 0.06% FOR 16 WK","(17/29) 57%; (16/30) 53%, 9%; (4/30) 13%, 77%, p<0.05; (2/29) 7%, 89%, p<0.05"
same,outcome,"Carcinogen: 3-METHYL-4-DIMETHYLAMINOAZOBENZENE [3732-90-9], Dose [Inhibitor]: 0, 10, 40, 80 MG/KG BW DAILY FOR 16 WK, Dose [Inhibitor]: 0, 10, 40, 80 MG/KG BW DAILY FOR 16 WK, Route [Inhibitor]: ORAL (GAVAGE), Species: RAT, Strain/Sex: F344/MALE (40,29)/(40,30)/(40/30)/(40,29), Target Tissue: Type of Lesion: LIVER: HEPATOCELLULAR ADENOMA, Dose [Carcinogen]: 0.06% FOR 16 WK","(29/29) 100%; (30/30) 100%, 0%; (26/30) 86.7%, 13.3%; (24/29) 82.4%, 17.6%"
C=CCSC[C@H](N)C(=O)O,outcome,"Carcinogen: 7,12-DIMETHYLBENZ[A]ANTHRACENE (57-97-6), Dose [Inhibitor]: 0, 200 MG/KG ON ALTERNATE DAYS FOR 14 WK (STUDY DURATION: 14 WK), Route [Inhibitor]: ORAL, Species: HAMSTER, Strain/Sex: SYRIAN/MALE, Target Tissue: Type of Lesion: BUCCAL POUCH: SQUAMOUS CELL CARCINOMA, Dose [Carcinogen]: 0.5% IN LIQUID PARAFFIN TO RIGHT BUCCAL POUCH, ALTERNATE DAYS FOR 14 WK, Promoter: NONE USED","10, 0, 100%, not calculated"
same,"tumour outcome (control, treated, inhibition, significance)","Carcinogen: N-METHYL-N'-NITRO-N-NITROSOGUANIDINE [70-25-7], Dose [Inhibitor]: 200 MG/KG 3X/WK BEGINNING ON DAY 1 (STUDY DURATION: 21 WK), Route [Inhibitor]: GAVAGE, Species: RAT, Strain/Sex: WISTAR/MALE, Target Tissue: Type of Lesion: STOMACH: CARCINOMA, Dose [Carcinogen]: 200 MG/KG BW ONCE ON DAYS 0 AND 14, Promoter: SODIUM CHLORIDE [7647-14-5]","6/6 (100%), 0/6 (0%), 100%, not determined"
same,"tumour outcome (control, treated, inhibition, significance)","Carcinogen: N-METHYL-N-NITROSOUREA, 684-93-5, Dose [Inhibitor]: 0, 57 UMOL/KG DIET FOR 25 WK BEGINNING 2 WK PRIOR TO CARCINOGEN DOSE (STUDY DURATION: 25 WK), Route [Inhibitor]: ORAL, Species: RAT, Strain/Sex: SPRAGUE-DAWLEY/FEMALE, Target Tissue: Type of Lesion: MAMMARY GLAND: TUMOR, Dose [Carcinogen]: 15 MG/KG BW ONCE, Promoter: NONE USED","81%, 48%, 41%, p<0.05"
C,"tumour outcome (control, treated, inhibition, significance)","Carcinogen: N-METHYL-N'-NITRO-N-NITROSOGUANIDINE [70-25-7], Dose [Inhibitor]: 100 MG/KG BW AQUALEN (ACTIVATED CARBON FIBER ADSORBENT) IN DIET 5X/WK FOR 16 MONTHS (STUDY DURATION: 16 MONTHS), Route [Inhibitor]: ORAL, Species: RAT, Strain/Sex: LIO/FEMALE, Target Tissue: Type of Lesion: DUODENUM: ADENOCARCINOMA, Dose [Carcinogen]: 100 MG/L IN DRINKING WATER 5X/WK FOR 12 MONTHS (STUDY DURATION: 16 MONTHS), Promoter: NONE","2/14 (14.3%), 0/13 (0.0%), 100%, not significant"
same,"tumour outcome (control, treated, inhibition, significance)","Carcinogen: N-METHYL-N'-NITRO-N-NITROSOGUANIDINE [70-25-7], Dose [Inhibitor]: 100 MG/KG BW AQUALEN (ACTIVATED CARBON FIBER ADSORBENT) IN DIET 5X/WK FOR 16 MONTHS (STUDY DURATION: 16 MONTHS), Route [Inhibitor]: ORAL, Species: RAT, Strain/Sex: LIO/FEMALE, Target Tissue: Type of Lesion: LIVER: CYSTOCHOLANGIOMA, Dose [Carcinogen]: 100 MG/L IN DRINKING WATER 5X/WK FOR 12 MONTHS (STUDY DURATION: 16 MONTHS), Promoter: NONE","2/14 (14.3%), 0/13 (0.0%), 100%, not significant"
same,"tumour outcome (control, treated, inhibition, significance)","Carcinogen: N-METHYL-N'-NITRO-N-NITROSOGUANIDINE [70-25-7], Dose [Inhibitor]: 100 MG/KG BW AQUALEN (ACTIVATED CARBON FIBER ADSORBENT) IN DIET 5X/WK FOR 16 MONTHS (STUDY DURATION: 16 MONTHS), Route [Inhibitor]: ORAL, Species: RAT, Strain/Sex: LIO/FEMALE, Target Tissue: Type of Lesion: STOMACH: CARCINOMA IN SITU, Dose [Carcinogen]: 100 MG/L IN DRINKING WATER 5X/WK FOR 12 MONTHS (STUDY DURATION: 16 MONTHS), Promoter: NONE","1/14 (7.1%), 4/13 (30.8%), -334%, not significant"
same,"tumour outcome (control, treated, inhibition, significance)","Carcinogen: N-METHYL-N'-NITRO-N-NITROSOGUANIDINE [70-25-7], Dose [Inhibitor]: 100 MG/KG BW AQUALEN (ACTIVATED CARBON FIBER ADSORBENT) IN DIET 5X/WK FOR 16 MONTHS (STUDY DURATION: 16 MONTHS), Route [Inhibitor]: ORAL, Species: RAT, Strain/Sex: LIO/FEMALE, Target Tissue: Type of Lesion: STOMACH: INVASIVE ADENOCARCINOMA, Dose [Carcinogen]: 100 MG/L IN DRINKING WATER 5X/WK FOR 12 MONTHS (STUDY DURATION: 16 MONTHS), Promoter: NONE","5/14 (35.7%), 1/13 (7.7%), 78%, p<0.05"
